Reference: patent US5710124A, “Method for combatting bovine mastitis” (Novartis Corporation, priority 1993, dated 1998)
Ends that are not written are not given here.

Legend:
[1] = tested on: Staphylococcus aureus Newbold 305; experiment: Effect on S. aureus in milk (cfu, percent survival); type: cell-based; conditions: for % survival: 37° C. 30 min
Procedure: Effect of Gallidermin on […] in milk Staphylococcus aureus Newbold 305 was grown in M17 broth (Merck) at 37° C. to an optical density at 600 nm of 1.0. Cells were collected by centrifugation and washed in 20 mM Tris-HCl pH 8.0. The bacterial pellet was resuspended in milk at a density of about 10^7 cells/ml. 1 ml aliquots of this suspension were incubated in eppendorf tubes with various amounts of Nisin, Lacticin 481 and Gallidermin. Incubations were at 37° C. for 30 min. A control with no antimicrobial added was run in parallel. After incubation the samples were centrifuged to obtain the cellular pellet, which was washed 2 times with 1 ml of 20 mM Tris-HCl pH 8.0 and resuspended in 1 ml of this buffer. […] of the appropriate dilutions were plated on M17 agar plates containing 0.5% glucose and incubated overnight at 37° C. Colony forming units (cfu) were determined and percent survival was calculated relative to the control.

[2] = tested on: S. aureus Newbold 305; experiment: MIC plate assay; type: cell-based, Staphylococcus aureus
Procedure: (§1) The MICs (Minimal Inhibitory Concentrations) of Gallidermin against […] and Streptococcus diacetylactis were determined. S. aureus Newbold 305 is a causative agent of Mastitis, S. diacetylactis is used in the manufacture of yoghurt and cheese.
(§2) Appropriate dilutions Gallidermin (300, 100, 30, 10, 3, 1, 0.3, 0.1 µg/ml) were prepared in milk and in M17 broth (Merck) and allowed to stand at room temperature for 30 min.
(§3) Then, […] aliquots of the solutions were spotted on M17 agar plates containing 0.5% of glucose. These plates had been overlaid with softagar (0.5% agarose) seeded with 1% of an A600=1 culture of either S. aureus or S. diacetylactis. The spots were allowed to dry, then the plates were incubated at 30° C. overnight.
(§4) The MICs were determined as the lowest concentration of antimicrobial protein causing the formation of a clear halo in the bacterial lawn.

[3] = tested on: Staphylococcus aureus; experiment: Subclinical bovine mastitis infection model, intramammary treatment; type: in vivo, cows
From the text: Preliminary experiments for evaluating the potential of Gallidermin, Epidermin or of their pharmaceutically acceptable acid addition salts in subclinical bovine mastitis
Non-infected cows are selected based on non recovery of Staphylococcus aureus from two milk samples taken one day apart from all quarters. Then, 3 quarters are inoculated via the intramammary route using a suspension of Staphylococcus aureus. The 4th quarter serves as control. During the two to four weeks after inoculation, milk samples are taken from all quarters at least 3 times to see whether Staphylococcus aureus can be recovered, and therefore whether the quarter has become infected. A quarter is defined as infected, if Staphylococcus aureus is recovered from at least two of these milk samples. Treatments are assigned randomly to infected quarters and injected via the intramammary route. Milk samples are taken daily until a minimum of 14 days after the last treatment. A quarter is considered as cured if milk samples from that quarter become negative (i.e., no Staphylococcus aureus is recovered) within 7 days after the last treatment and stay negative throughout the 14 day sampling period.
This experimental model is used to have a fixed framework on which to evaluate treatments. To work with Staphylococcus aureus has the advantage that it is the most difficult Gram positive bacterium to treat and one of the most important bacteria causing bovine mastitis. Therefore, cure rates should be expected to be lower than for other Gram positive bacteria, such as Streptococci and coagulase-negative Staphylococci.
In addition, the infection is mild as it should be for subclinical mastitis.
To optimize work load in relation to man power, 8 to 16 cows are enrolled in each trial. Trials normally last 5 weeks.

[4] = tested on: Streptococcus diacetylactis; experiment: MIC plate assay; type: cell-based; conditions: for MIC: S. diacetylactis
Procedure: as §1, §2, §3, §4

For Lacticin 481, the “activity against Staphylococcus aureus in the presence of milk” value (“activity against Staphylococcus aureus” for short) [1] was “strongly inhibited”, the “% survival” value ([1]; 1 µg/ml) was 74% and the “% survival” value ([1]; 3 µg/ml) was 51%. The “% survival” value ([1]; 10 µg/ml) was 36%, the “% survival” value ([1]; 30 µg/ml) was 30% and the “% survival” value ([1]; 100 µg/ml) was 12%.

In the case of “Gallidermin (IASKFLCTPGCAKTGSFNSYCC; not fully specified; ends and bridges not checked; also: lantibiotic; UniProt P21838 31-52, looked up) [natural product produced by the microorganism Staphylococcus gallinarum; lanthionine containing peptide]”, the MIC ([2]; dilutions in M17 broth) is reported as 1 mug/ml, the MIC ([2]; dilutions in milk) is reported as 0.3 mug/ml and the “% of treated group positive” value ([3]; 3 × 1 mg, 27 qutrs, day 0 (before treatment)) is reported as 93%. For the same substance, the “% of treated group positive” value ([3]; 3 × 1 mg, 27 qutrs, day 1) was 37%, the “% of treated group positive” value ([3]; 3 × 1 mg, 27 qutrs, day 2) was 11% and the “% of treated group positive” value ([3]; 3 × 1 mg, 27 qutrs, day 3) was 26%. For the same substance, the “% of treated group positive” value ([3]; 3 × 1 mg, 27 qutrs, day 4) was 56%, the “% of treated group positive” value ([3]; 3 × 1 mg, 27 qutrs, day 5) was 59% and the “% of treated group positive” value ([3]; 3 × 1 mg, 27 qutrs, day 7) was 56%. The “% of treated group positive” value ([3]; 3 × 1 mg, 27 qutrs, day 8) was 56%, the “% of treated group positive” value ([3]; 3 × 1 mg, 27 qutrs, day 9) was 52% and the “% of treated group positive” value ([3]; 3 × 1 mg, 27 qutrs, day 10) was 56%. The “% of treated group positive” value ([3]; 3 × 1 mg, 27 qutrs, day 11) was 56%, the “% of treated group positive” value ([3]; 3 × 1 mg, 27 qutrs, day 12) was 52% and the “% of treated group positive” value ([3]; 3 × 1 mg, 27 qutrs, day 14) was 48%. The “% of treated group positive” value ([3]; 3 × 1 mg, 27 qutrs, day 15) was 52%, the “% of treated group positive” value ([3]; 14 × 0.1 mg, 24 qutrs, day 0 (before treatment)) was 96% and the “% of treated group positive” value ([3]; 14 × 0.1 mg, 24 qutrs, day 1) was 88%. For the same substance, the “% of treated group positive” value ([3]; 14 × 0.1 mg, 24 qutrs, day 2) was 88%, the “% of treated group positive” value ([3]; 14 × 0.1 mg, 24 qutrs, day 3) was 71% and the “% of treated group positive” value ([3]; 14 × 0.1 mg, 24 qutrs, day 4) was 58%. The “% of treated group positive” value ([3]; 14 × 0.1 mg, 24 qutrs, day 5) was 67%, the “% of treated group positive” value ([3]; 14 × 0.1 mg, 24 qutrs, day 7) was 50% and the “% of treated group positive” value ([3]; 14 × 0.1 mg, 24 qutrs, day 8) was 67%. The “% of treated group positive” value ([3]; 14 × 0.1 mg, 24 qutrs, day 9) was 71%, the “% of treated group positive” value ([3]; 14 × 0.1 mg, 24 qutrs, day 10) was 88% and the “% of treated group positive” value ([3]; 14 × 0.1 mg, 24 qutrs, day 11) was 83%. The “% of treated group positive” value ([3]; 14 × 0.1 mg, 24 qutrs, day 12) was 88%, the “% of treated group positive” value ([3]; 14 × 0.1 mg, 24 qutrs, day 14) was 79% and the “% of treated group positive” value ([3]; 14 × 0.1 mg, 24 qutrs, day 15) was 88%. The “% of treated group positive” value ([3]; 14 × 0.1 mg, 24 qutrs, day 16) was 83%, the “% of treated group positive” value ([3]; 14 × 0.1 mg, 24 qutrs, day 17) was 83% and the “% of treated group positive” value ([3]; 14 × 0.1 mg, 24 qutrs, day 19) was 79%. For the same substance, the “% of treated group positive” value ([3]; 14 × 0.1 mg, 24 qutrs, day 21) was 83%, the MIC ([4]; dilutions in M17 broth) was 0.3 mug/ml and the MIC ([4]; dilutions in milk) was 1 mug/ml. The “activity against Streptococcus diacetylactis in milk versus broth” value ([4]; milk and M17 broth) was “comparable activities”, the “activity against Staphylococcus aureus” value [1] was “retains a high specific activity” and the “% survival” value ([1]; 0.3 µg/ml) was 29%. The “% survival” value ([1]; 1 µg/ml) was 12%, the “% survival” value ([1]; 3 µg/ml) was 1% and the “% survival” value ([1]; 10 µg/ml) was 0.01%.

With Nisin the “activity against Staphylococcus aureus” value [1] was “strongly inhibited”, the “% survival” value ([1]; 3 µg/ml) was 65% and the “% survival” value ([1]; 10 µg/ml) was 15%. For the same substance, the “% survival” value ([1]; 30 µg/ml) was 1.8% and the “% survival” value ([1]; 100 µg/ml) was 0.2%.
